The compounds below were run against T1, OTR (Homo sapiens, UniProt P30559) (assay: Ca2+ mobilization in cells stably expressing OTR (FLIPR, antagonist mode)). Details: OTR/HEK293 stably transfected cell line.
T1 construct: expressed in transfected cells; host or cells: OTR/HEK293 stably transfected cell line
T1 sequence (P30559 1-389): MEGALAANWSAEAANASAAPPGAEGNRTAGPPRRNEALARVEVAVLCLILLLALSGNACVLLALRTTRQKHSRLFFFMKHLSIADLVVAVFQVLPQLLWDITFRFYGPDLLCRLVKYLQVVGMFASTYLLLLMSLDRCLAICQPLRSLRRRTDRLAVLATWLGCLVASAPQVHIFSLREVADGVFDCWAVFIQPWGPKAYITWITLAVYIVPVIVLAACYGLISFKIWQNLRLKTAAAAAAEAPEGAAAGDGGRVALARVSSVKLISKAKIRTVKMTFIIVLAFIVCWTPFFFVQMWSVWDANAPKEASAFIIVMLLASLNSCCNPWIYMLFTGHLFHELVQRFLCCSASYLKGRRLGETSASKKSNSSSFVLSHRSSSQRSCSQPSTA
Format: cell-based
Description: Test Example 1. Determination of the Effect of the Compound of the Present Disclosure on Ca^2+ Mobilization in Cells Stably Expressing OTR
To measure the antagonistic effect of the compound of the present disclosure on OTR activity expressed in the OTR/HEK293 stably transfected cell line.
• DMEM medium (Invitrogen, 11965) • F12 medium (Invitrogen, 11765) • Fetal bovine serum (Excell, FSP500) • Geneticin (Invitrogen, 10131) • Penicillin/Streptomycin (Invitrogen, SV30010) • Fluo-4 Direct kit (Invitrogen, F10471) • 384-well cell plate (Greiner, 781090) • 384-well compound plate (Greiner, 781280)
• FLIPR instrument (Molecular Device) • EHCO instrument (Labcyte) • Cell counter (Beckman, Vi-cell XR)
The cultured cells were washed twice with pre-heated DPBS and digested with appropriate amount of trypsin at 37° C. for 1 minute, and then appropriate amount of culture medium was added to terminate digestion. The cells were centrifuged at 1000 rpm for 5 minutes. The supernatant was gently discarded without disturbing the cell pellet at the bottom. The cells were resuspended in culture medium and 1 mL was taken out for cell counting and viability assessment using Vi-CELL™. The cells were diluted to 1×10^6 cells/mL (20,000 cells/20 μL) with culture medium, seeded into a 384-well cell plate and incubated at 37° C. with 5% CO2 for 16-20 h.
Formulation of 250 mM Probenecid solution: according to the kit instructions, 1 mL of FLIPR buffer salt solution was added to 77 mg of probenecid, prepared fresh just before use. Formulation of Fluo-4 Direct™ (2×, 8 μM) loading buffer: according to the kit instructions, the required amount of Fluo-4 Direct™ was taken out and thawed in advance, 10 mL of FLIPR buffer salt solution and 0.2 mL of 250 mM Probenecid solution were added to each tube, and the mixture was vortexed in the dark for >5 minutes, prepared fresh just before use.
Preparation of agonist reference compound plate: the agonist was diluted 3-fold in 10 points using ECHO, and 750 nL was transferred to the corresponding compound plate using ECHO.
Preparation of reference and test compound plates: the test compound was diluted 3-fold in 10 points with ECHO, and 900 nL was transferred to the corresponding compound plate; the reference compound was diluted 3-fold in 10 points with assay buffer salt solution, and 30 μL was transferred to the compound plate.
30 μL of assay buffer salt solution was added to the corresponding compound plate, and the mixture was centrifuged at 1000 rpm for 1 minute.
The cell plate prepared the day before was taken out of the incubator, and 20 μL of 2×Fluo-4 Direct™ buffer was added to each well, with a total volume of 40 μL.
The plate was incubated in an incubator at 37° C. with 5% CO2 for 50 minutes, and then placed at room temperature for 10 minutes.
The compound plate, cell plate, and pipette tips were placed into the instrument.
For the agonist reference compound plate: the FLIPR instrument software was run, 10 μL of the pre-determined concentration of agonist reference compound was added to the cell plate following the preset protocol, and the fluorescence signal was read. After reading, the data were exported to calculate the EC80 for each cell line, and the agonist at 6×EC80 concentration was prepared.
For the compound plate: the FLIPR instrument software was run, 10 μL of the pre-determined concentration of test compound and the reference compound were added to the cell plate following the preset protocol, and the fluorescence signal was read. 10 μL of the reference compound agonist at 6×EC80 concentration was added to the cell plate, and the fluorescence signal was read. For antagonist detection of the compound, the data were exported using the “Max-Min” and “Read 1 to Maximum allowed” methods in the software, and the data were fitted using Prism.
With `CON=C1CN(C(=O)c2ccc(-c3ccccc3C)cc2)C2COCCN12` (mixture of isomers) [Example C0033, (EZ)-(3-(Methoxyimino)hexahydro-1H-imidazo[2,1-c][1,4]oxazin-1-yl)(2′-methyl-[1, 1′-biphenyl]-4-yl)methanone] the IC50 was 1900 nM.
With `CO/N=C1/CC2(CO)CCC1N2C(=O)c1ccc(-c2ccccc2C)cc1` (single isomer, unassigned) [Example A0087] the IC50 was 1080 nM.
For `CON=C1CC(C(=O)NCC(O)c2ccccc2)N(C(=O)c2ccc(-c3cccc(C#N)c3C)cc2)C1` (single isomer, unassigned) [Example A0229, (25, E)-1-(3′-Cyano-2′-methyl-[1,1′-biphenyl]-4-carbonyl)-N-(2-hydroxy-2-phenethyl)-4-(methoxyimino)pyrrolidine-2-carboxamide], the IC50 was 122 nM.
`CON=C1CC(C(=O)NCC(O)c2ccccc2)N(C(=O)c2ccc(-c3cccc(C#N)c3C)cc2)C1` (single isomer, unassigned) [Example A0233, (25, Z)-1-(3′-Cyano-2′-methyl-[1,1′-biphenyl]-4-carbonyl)-N-(2-hydroxy-2-phenethyl)-4-(methoxyimino)pyrrolidine-2-carboxamide] showed an IC50 of 48.3 nM.
`CON=C1C[C@@H](CNC(C)=O)N(C(=O)c2ccc(-c3ccccc3C)cc2)C1` (single isomer, unassigned) [Example C0006] showed an IC50 of 1740 nM.
`CO/N=C1/C[C@@H](CO)N(C(=O)c2ccc(-c3ccc(C#N)cc3C)cc2)C1` (single isomer, unassigned) [Example C0093] gave an IC50 of 1140 nM.
With `CON=C1C[C@@H](CO)N(C(=O)c2ncc(-c3cccc(C)c3C)nn2)C1` (single isomer, unassigned) [Example C0109] the IC50 was 367 nM.
`CO/N=C1\C[C@@H]([C@H](C)O)N(C(=O)c2ccc(-c3cccc(C#N)c3C)cc2)C1` (single isomer, unassigned) [Example C0110] gave an IC50 of 98.1 nM.
With `CON=C1C[C@@H](CO)N(C(=O)c2ccc3c(c2)COCc2c(C#N)cccc2-3)C1` (single isomer, unassigned) [Example C0142, (Z/E)-9-(2-(Hydroxymethyl)-4-(methoxyimino)pyrrolidine-1-carbonyl)-5,7-dihydrodibenzo[c,e]oxepine-4-carbonitrile] the IC50 was 2940 nM.
`CO/N=C1\CN(C(=O)c2ccc(-c3ccccc3C)cc2)C2(COC2)C1` [Example A0041, (Z)-(7-(Methoxyimino)-2-oxa-5-azaspiro[3.4]octan-5-yl)(2′-methyl-[1, 1′-biphenyl]-4-yl)methanone] showed an IC50 of 575 nM.
Compound `CON=C1C[C@@H](C2(O)CC2)N(C(=O)c2ccc(-c3ccccc3C)cc2)C1` [Example A0066, (S, EZ)-(2-(1-Hydroxycyclopropyl)-4-(methoxyimino)pyrrolidin-1-yl)(2′-methyl-[1,1′-biphenyl]-4-yl)methanone] has an IC50 of 197 nM.
`CO/N=C1\CN(C(=O)c2ccc(-c3ccccc3C)cc2)C(CO)(CO)C1` [Example A0083, (Z)-(2,2-Bis(hydroxymethyl)-4-(methoxyimino)pyrrolidin-1-yl)(2′-methyl-[1, 1′-biphenyl]-4-yl)methanone] was tested, and the IC50 was 539 nM.
In the case of `CON=C1C[C@@H](c2nc3ccccc3o2)N(C(=O)c2ccc(-c3ccccc3C)cc2)C1` [Example A0086, (S, EZ)-(2-(Benzo[d]oxazol-2-yl)-4-(methoxyimino)pyrrolidin-1-yl)(2′-methyl-[1, 1′-biphenyl]-4-yl)methanone], the IC50 is reported as 237 nM.
With `CO/N=C1/CN(C(=O)c2ccc(-c3ccccc3C)cc2)C2(COC2)C1` [Example A0112, (E)-(7-(Methoxyimino)-2-oxa-5-azaspiro[3.4]octan-5-yl)(2′-methyl-[1, 1′-biphenyl]-4-yl)methanone] the IC50 was 815 nM.
In the case of `CO/N=C1/C[C@@H](CO)N(C(=O)c2ccc(-c3cccc(C)c3C#N)cc2)C1` [Example A0130, (S, Z)-4′-(2-(Hydroxymethyl)-4-(methoxyimino)pyrrolidine-1-carbonyl)-3-methyl-[1,1′-biphenyl]-2-carbonitrile], the IC50 is reported as 647 nM.
In the case of `CO/N=C1/C[C@@H](CO)N(C(=O)c2ccc(-c3cccc(C)c3C)cc2C#N)C1` [Example A0131, 5-(2,3-Dimethylphenyl)-2-[(2S, 4Z)-2-(hydroxymethyl)-4-(methoxyimino)pyrrolidine-1-carbonyl]benzonitrile], the IC50 is reported as 172 nM.
Compound `CO/N=C1/C[C@@H](CO)N(C(=O)c2cnc(-c3cccc(C)c3C)c(C(F)(F)F)n2)C1` [Example A0137] has an IC50 of 153 nM.
For `CO/N=C1\C[C@@H](CO)N(C(=O)c2ccc(-c3cccc(C)c3C#N)cc2)C1` [Example A0144, (S, E)-4′-(2-(Hydroxymethyl)-4-(methoxyimino)pyrrolidine-1-carbonyl)-3-methyl-[1,1′-biphenyl]-2-carbonitrile], the IC50 was 1110 nM.
For `CO/N=C1/C[C@@H](CO)N(C(=O)c2ccc(-c3cccc(C)c3C)c(OC3COC3)c2)C1` [Example A0147, (S, Z)-(2′, 3′-Dimethyl-2-(oxetan-3-yloxy)-[1, 1′-biphenyl]-4-yl)(2-(hydroxymethyl)-4-(methoxyimino)pyrrolidin-1-yl)methanone], the IC50 was 23.5 nM.
With `COCCOc1cc(C(=O)N2C/C(=N\OC)C[C@H]2CO)ccc1-c1cccc(C)c1C` [Example A0149, (S, Z)-(2-(Hydroxymethyl)-4-(methoxyimino)pyrrolidin-1-yl)(2-(2-methoxyethoxy)-2′, 3′-dimethyl-[1,1′-biphenyl]-4-yl)methanone] the IC50 was 17.1 nM.
`CO/N=C1\C[C@@H](CO)N(C(=O)c2ccc(-c3cccc(C)c3C)cc2C#N)C1` [Example A0153, 5-(2,3-Dimethylphenyl)-2-[(2S, 4E)-2-(hydroxymethyl)-4-(methoxyimino)pyrrolidine-1-carbonyl]benzonitrile] gave an IC50 of 485 nM.
Compound `CO/N=C1/C[C@@H](CO)N(C(=O)c2ccc(-c3cccc(C)c3C)c(C(=O)N3CCOCC3)c2)C1` [Example A0158, (25, 4Z)-(2′, 3′-Dimethyl-2-(morpholine-4-carbonyl)-[1, 1′-biphenyl]-4-yl)(2-(hydroxymethyl)-4-(methoxyimino)pyrrolidin-1-yl)methanone] has an IC50 of 1520 nM.
`CO/N=C1/C[C@@H](CO)N(C(=O)c2ccc(-c3cccc(C#N)c3C)c3c2OCC(=O)N3C)C1` [Example A0163, (S, Z)-3-(8-(2-(Hydroxymethyl)-4-(methoxyimino)pyrrolidine-1-carbonyl)-4-methyl-3-oxo-3,4-dihydro-2H-benzo[b][1,4]oxazin-5-yl)-2-methylbenzonitrile] showed an IC50 of 202 nM.
For `CO/N=C1\C[C@@H](CO)N(C(=O)c2ccc(-c3cccc(C)c3C)c(C(=O)NC3COC3)c2)C1` [Example A0179, (S, E)-4-(2-(Hydroxymethyl)-4-(methoxyimino)pyrrolidine-1-carbonyl)-2′, 3′-dimethyl-N-(oxetan-3-yl)-[1,1′-biphenyl]-2-carboxamide], the IC50 was 165 nM.
Compound `CO/N=C1/C[C@@H](CO)N(C(=O)c2ccc(-c3cccc(C#N)c3C)c(C3(O)COC3)c2)C1` [Example A0183, 3-(4-[(2S, 4Z)-2-(Hydroxymethyl)-4-(methoxyimino)pyrrolidine-1-carbonyl]-2-(3-hydroxyoxetan-3-yl)phenyl)-2-methylbenzonitrile] has an IC50 of 1480 nM.
